Reference: PubChem BioAssay AID1259407 (Chemical Carcinogenesis Research Information System (CCRIS), 2018)
Calls of active or inactive are those of the source. The rule behind the calls is not given here.

Tested on: CCRIS mutagenicity, Ames/micronucleus/aberration tests
Test: CCRIS mutagenicity studies
[1] = Test System: AMES SALMONELLA TYPHIMURIUM, Strain/Indicator: TA97, Metabolic Activation: NONE, Method: PREINCUBATION
[2] = Test System: AMES SALMONELLA TYPHIMURIUM, Strain/Indicator: TA98, Metabolic Activation: NONE, Method: PREINCUBATION
[3] = Test System: AMES SALMONELLA TYPHIMURIUM, Strain/Indicator: TA100, Metabolic Activation: NONE, Method: PREINCUBATION
[4] = Test System: AMES SALMONELLA TYPHIMURIUM, Strain/Indicator: TA1535, Metabolic Activation: NONE, Method: PREINCUBATION
[5] = Test System: AMES SALMONELLA TYPHIMURIUM, Strain/Indicator: TA1537, Metabolic Activation: NONE, Method: PREINCUBATION

Structure (SMILES): Nc1nc(=O)n([C@H]2C[C@H](O)[C@@H](CO)O2)cc1I
- mutagenic call [1]: inactive; negative
- mutagenic call (Test System: AMES SALMONELLA TYPHIMURIUM, Strain/Indicator: TA97, Metabolic Activation: RAT, LIVER, S-9, AROCLOR 1254, Method: PREINCUBATION): inactive; negative
- mutagenic call [2]: inactive; negative
- mutagenic call (Test System: AMES SALMONELLA TYPHIMURIUM, Strain/Indicator: TA98, Metabolic Activation: RAT, LIVER, S-9, AROCLOR 1254, Method: PREINCUBATION): inactive; negative
- mutagenic call [3]: inactive; negative
- mutagenic call (Test System: AMES SALMONELLA TYPHIMURIUM, Strain/Indicator: TA100, Metabolic Activation: RAT, LIVER, S-9, AROCLOR 1254, Method: PREINCUBATION): inactive; negative
- mutagenic call (Test System: AMES SALMONELLA TYPHIMURIUM, Strain/Indicator: TA102, Metabolic Activation: NONE, Method: PREINCUBATION): inactive; negative
- mutagenic call (Test System: AMES SALMONELLA TYPHIMURIUM, Strain/Indicator: TA102, Metabolic Activation: RAT, LIVER, S-9, AROCLOR 1254, Method: PREINCUBATION): inactive; negative
- mutagenic call (Test System: AMES SALMONELLA TYPHIMURIUM, Strain/Indicator: TA104, Metabolic Activation: NONE, Method: PREINCUBATION): inactive; negative
- mutagenic call (Test System: AMES SALMONELLA TYPHIMURIUM, Strain/Indicator: TA104, Metabolic Activation: RAT, LIVER, S-9, AROCLOR 1254, Method: PREINCUBATION): inactive; negative
- mutagenic call [4]: inactive; negative
- mutagenic call (Test System: AMES SALMONELLA TYPHIMURIUM, Strain/Indicator: TA1535, Metabolic Activation: RAT, LIVER, S-9, AROCLOR 1254, Method: PREINCUBATION): inactive; negative
- mutagenic call [5]: inactive; negative
- mutagenic call (Test System: AMES SALMONELLA TYPHIMURIUM, Strain/Indicator: TA1537, Metabolic Activation: RAT, LIVER, S-9, AROCLOR 1254, Method: PREINCUBATION): inactive; negative
- mutagenic call (Test System: AMES SALMONELLA TYPHIMURIUM, Strain/Indicator: TA1538, Metabolic Activation: NONE, Method: PREINCUBATION): inactive; negative
- mutagenic call (Test System: AMES SALMONELLA TYPHIMURIUM, Strain/Indicator: TA1538, Metabolic Activation: RAT, LIVER, S-9, AROCLOR 1254, Method: PREINCUBATION): inactive; negative
- mutagenic call (Test System: CHINESE HAMSTER V-79, Strain/Indicator: V-79/8-AZAGUANINE, Metabolic Activation: NONE): inactive; negative

Structure (SMILES): Clc1ccc2c(c1)oc1ccccc12
- mutagenic call (Test System: AMES SALMONELLA TYPHIMURIUM, Strain/Indicator: TA98, Metabolic Activation: NONE, Method: STANDARD PLATE): active; positive
- mutagenic call (Test System: AMES SALMONELLA TYPHIMURIUM, Strain/Indicator: TA98, Metabolic Activation: RAT, LIVER, S-9, PHENOBARBITAL AND NAPHTHOFLAVONE, Method: STANDARD PLATE): active; positive
- mutagenic call (Test System: AMES SALMONELLA TYPHIMURIUM, Strain/Indicator: TA100, Metabolic Activation: NONE, Method: STANDARD PLATE): active; positive
- mutagenic call (Test System: AMES SALMONELLA TYPHIMURIUM, Strain/Indicator: TA100, Metabolic Activation: RAT, LIVER, S-9, PHENOBARBITAL AND NAPHTHOFLAVONE, Method: STANDARD PLATE): active; positive

Structure (SMILES): NCCCNCCCCNCCCN
- mutagenic call (Test System: E. COLI, Strain/Indicator: WP2 UVRA (PKM101), Metabolic Activation: NONE, Method: STANDARD PLATE): inactive; negative
- mutagenic call (Test System: E. COLI, Strain/Indicator: WP2 UVRA/OXYR (PKM101), Metabolic Activation: NONE, Method: STANDARD PLATE): inactive; negative

Structure (SMILES): O=C(O)CS
- mutagenic call (Test System: AMES SALMONELLA TYPHIMURIUM, Strain/Indicator: TA97, Metabolic Activation: HAMSTER, LIVER, S-9, AROCLOR 1254 (10 OR 30%), Method: PREINCUBATION): inactive; negative
- mutagenic call [1]: inactive; negative
- mutagenic call (Test System: AMES SALMONELLA TYPHIMURIUM, Strain/Indicator: TA97, Metabolic Activation: RAT, LIVER, S-9, AROCLOR 1254 (10 OR 30%), Method: PREINCUBATION): inactive; negative
- mutagenic call (Test System: AMES SALMONELLA TYPHIMURIUM, Strain/Indicator: TA98, Metabolic Activation: HAMSTER, LIVER, S-9, AROCLOR 1254 (10%), Method: PREINCUBATION): inactive; negative
- mutagenic call (Test System: AMES SALMONELLA TYPHIMURIUM, Strain/Indicator: TA98, Metabolic Activation: HAMSTER, LIVER, S-9, AROCLOR 1254 (10 OR 30%), Method: PREINCUBATION): inactive; negative
- mutagenic call [2]: inactive; negative
- mutagenic call (Test System: AMES SALMONELLA TYPHIMURIUM, Strain/Indicator: TA98, Metabolic Activation: RAT, LIVER, S-9, AROCLOR 1254 (10%), Method: PREINCUBATION): inactive; negative
- mutagenic call (Test System: AMES SALMONELLA TYPHIMURIUM, Strain/Indicator: TA98, Metabolic Activation: RAT, LIVER, S-9, AROCLOR 1254 (10 OR 30%), Method: PREINCUBATION): inactive; negative
- mutagenic call (Test System: AMES SALMONELLA TYPHIMURIUM, Strain/Indicator: TA100, Metabolic Activation: HAMSTER, LIVER, S-9, AROCLOR 1254 (10%), Method: PREINCUBATION): inactive; negative
- mutagenic call (Test System: AMES SALMONELLA TYPHIMURIUM, Strain/Indicator: TA100, Metabolic Activation: HAMSTER, LIVER, S-9, AROCLOR 1254 (10 OR 30%), Method: PREINCUBATION): inactive; negative
- mutagenic call [3]: inactive; negative
- mutagenic call (Test System: AMES SALMONELLA TYPHIMURIUM, Strain/Indicator: TA100, Metabolic Activation: RAT, LIVER, S-9, AROCLOR 1254 (10%), Method: PREINCUBATION): inactive; negative
- mutagenic call (Test System: AMES SALMONELLA TYPHIMURIUM, Strain/Indicator: TA100, Metabolic Activation: RAT, LIVER, S-9, AROCLOR 1254 (10 OR 30%), Method: PREINCUBATION): inactive; negative
- mutagenic call (Test System: AMES SALMONELLA TYPHIMURIUM, Strain/Indicator: TA1535, Metabolic Activation: HAMSTER, LIVER, S-9, AROCLOR 1254 (10%), Method: PREINCUBATION): inactive; negative
- mutagenic call (Test System: AMES SALMONELLA TYPHIMURIUM, Strain/Indicator: TA1535, Metabolic Activation: HAMSTER, LIVER, S-9, AROCLOR 1254 (10 OR 30%), Method: PREINCUBATION): inactive; negative
- mutagenic call [4]: inactive; negative
- mutagenic call (Test System: AMES SALMONELLA TYPHIMURIUM, Strain/Indicator: TA1535, Metabolic Activation: RAT, LIVER, S-9, AROCLOR 1254 (10%), Method: PREINCUBATION): inactive; negative
- mutagenic call (Test System: AMES SALMONELLA TYPHIMURIUM, Strain/Indicator: TA1535, Metabolic Activation: RAT, LIVER, S-9, AROCLOR 1254 (10 OR 30%), Method: PREINCUBATION): inactive; negative
- mutagenic call (Test System: AMES SALMONELLA TYPHIMURIUM, Strain/Indicator: TA1537, Metabolic Activation: HAMSTER, LIVER, S-9, AROCLOR 1254 (10%), Method: PREINCUBATION): inactive; negative
- mutagenic call [5]: inactive; negative
- mutagenic call (Test System: AMES SALMONELLA TYPHIMURIUM, Strain/Indicator: TA1537, Metabolic Activation: RAT, LIVER, S-9, AROCLOR 1254 (10%), Method: PREINCUBATION): inactive; negative

Structure (SMILES): c1ccc(OC2CO2)cc1 (stereo unspecified)
- mutagenic call (Test System: AMES SALMONELLA TYPHIMURIUM, Strain/Indicator: TA98, Metabolic Activation: RAT LIVER MICROSOMES, Method: STANDARD PLATE): active; positive
- mutagenic call (Test System: AMES SALMONELLA TYPHIMURIUM, Strain/Indicator: TA1535, Metabolic Activation: RAT LIVER MICROSOMES, Method: STANDARD PLATE): active; positive
